Measured values: patent US10774076B2, “Benzazole compounds and methods for making and using the compounds” (Rigel Pharmaceuticals, Inc., priority 2015, dated 2020)

What was measured:
[1] = test system: IL23-p19; test: Compound screening using DC cells: LPS-induced IL-23 (p19/p40) ELISA in IFNγ-primed dendritic cells differentiated from human PBMC; format: cell-based; settings: Dendritic cell, human PBMC-derived dendritic cells, LPS 1 μg/ml, 18 hours, 10 pt
In short: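 Dendritic cells were derived from human PBMC over 7 days with GMCSF (100 ng/ml) and IL4 (20 ng/ml), then primed 24 h with 50 ng/ml IFNγ. After 1 h pre-incubation with compound, cells were stimulated with LPS (1 μg/ml final) for 18 h at 37 °C. IL-23 in supernatant measured by p19-capture/p40-detection chemiluminescent ELISA; cytotoxicity checked by CellTiter-Glo.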

[2] = test system: IL23p19; test: LPS Induced IL23p19 in THP-1 Cells (with IFNγ Primed) Assay; format: cell-based; settings: Homo sapiens, IFNγ primed (50 ng/mL), LPS 1 ug/mL, 18 hours, 10 pt, read-out: IL23-p19 ELISA, THP1-IFNy, LPS, 10 pt EC50
In short: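 IFNγ-primed (50 ng/mL, ~18 h) THP-1 cells in RPMI/10% FBS pre-incubated 1 h with serially diluted compound, then stimulated 18 h at 37 °C with 1 ug/mL LPS. Supernatant IL-23p19 quantified by chemiluminescent sandwich ELISA (anti-IL-12 p40/p70 detection); EC50 from curve fit. Toxicity checked by Cell Titer Glo.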

Row | EC50 [1] | EC50 [2] | Structure (SMILES)
1 | 14000 nM | 40500 nM | O=C(Nc1cc2sc(N3CCOCC3)nc2cc1N1CCCCC1)c1ccc(-c2cnc3[nH]ccc3c2)o1 [Compound I-6, N-(2-morpholino-5-(piperidin-1-yl)benzo[d]thiazol-6-yl)-5-(1H-pyrrolo[2,3-b]pyridin-5-yl)furan-2-carboxamide]
2 | 666 nM | 321 nM | O=C(Nc1cc2oc(N3CCCCC3)nc2cc1N1CCCCC1)c1csc(-c2cn[nH]c2)n1 [Compound I-35, N-(2,5-di(piperidin-1-yl)benzo[d]oxazol-6-yl)-2-(1H-pyrazol-4-yl)thiazole-4-carboxamide]
3 | 444 nM | 144 nM | O=C(Nc1cc2oc(N3CCCCC3)nc2cc1N1CCCCC1)c1ccc(-c2cn[nH]c2)o1 [Compound I-31, N-(2,5-di(piperidin-1-yl)benzo[d]oxazol-6-yl)-5-(1H-pyrazol-4-yl)furan-2-carboxamide]
4 | 20 nM | 53.9 nM | O=C(Nc1cc2oc(N3CCOCC3)nc2cc1N1CCCCC1)c1csc(-c2cn[nH]c2)n1 [Compound I-12, N-(2-morpholino-5-(piperidin-1-yl)benzo[d]oxazol-6-yl)-2-(1H-pyrazol-4-yl)thiazole-4-carboxamide]
5 | 2990 nM | 4630 nM | Cc1cc(-c2ccc(C(=O)Nc3cc4oc(N5CCOCC5)nc4cc3N3CCCCC3)o2)ccn1 [Compound I-10, 5-(2-methylpyridin-4-yl)-N-(2-morpholino-5-(piperidin-1-yl)benzo[d]oxazol-6-yl)furan-2-carboxamide]
6 | 39.1 nM | 31.4 nM | O=C(Nc1cc2oc(N3CCOCC3)nc2cc1N1CCCCC1)c1ccc(-c2cn[nH]c2)o1 [Compound I-3, N-(2-morpholino-5-(piperidin-1-yl)benzo[d]oxazol-6-yl)-5-(1H-pyrazol-4-yl)furan-2-carboxamide]
